According to ChEMBL document CHEMBL4376850, “1-Benzylpyrrolidine-3-amine-based BuChE inhibitors with anti-aggregating, antioxidant and metal-chelating properties as multifunctional agents against Alzheimer's disease” (Eur J Med Chem, 2020):
Activity calls are given as the source filed them. The calls are words filed in the database; no cut-off is given here.

Columns and labels:
[1] = Metal chelating activity assessed as Cu2+-compound complex formation at 50 uM after 30 mins by UV-Visible spectrophotometric method
Beta-secretase 1 [2] = target: T1, Beta-secretase 1 (Homo sapiens, UniProt P56817); test: Inhibition of BACE1 (unknown origin)
T1 sequence (P56817 whole entry): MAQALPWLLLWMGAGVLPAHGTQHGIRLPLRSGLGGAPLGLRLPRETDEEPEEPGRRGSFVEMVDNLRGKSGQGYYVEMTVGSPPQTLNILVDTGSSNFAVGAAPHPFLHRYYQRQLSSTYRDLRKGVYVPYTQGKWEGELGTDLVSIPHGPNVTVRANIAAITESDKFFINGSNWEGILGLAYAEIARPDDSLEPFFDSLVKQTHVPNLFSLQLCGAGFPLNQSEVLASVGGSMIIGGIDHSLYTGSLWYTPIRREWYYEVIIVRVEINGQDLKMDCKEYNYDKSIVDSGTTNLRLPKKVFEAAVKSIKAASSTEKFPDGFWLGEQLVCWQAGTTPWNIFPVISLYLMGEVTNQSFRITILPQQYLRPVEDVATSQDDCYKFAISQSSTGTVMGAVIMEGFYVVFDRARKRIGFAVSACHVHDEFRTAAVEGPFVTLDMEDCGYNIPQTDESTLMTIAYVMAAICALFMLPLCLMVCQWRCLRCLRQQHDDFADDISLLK

Cholinesterase [3] = target: T2, Cholinesterase (Equus caballus, UniProt P81908); test: Inhibition of equine BuChE
T2 sequence (P81908 whole entry): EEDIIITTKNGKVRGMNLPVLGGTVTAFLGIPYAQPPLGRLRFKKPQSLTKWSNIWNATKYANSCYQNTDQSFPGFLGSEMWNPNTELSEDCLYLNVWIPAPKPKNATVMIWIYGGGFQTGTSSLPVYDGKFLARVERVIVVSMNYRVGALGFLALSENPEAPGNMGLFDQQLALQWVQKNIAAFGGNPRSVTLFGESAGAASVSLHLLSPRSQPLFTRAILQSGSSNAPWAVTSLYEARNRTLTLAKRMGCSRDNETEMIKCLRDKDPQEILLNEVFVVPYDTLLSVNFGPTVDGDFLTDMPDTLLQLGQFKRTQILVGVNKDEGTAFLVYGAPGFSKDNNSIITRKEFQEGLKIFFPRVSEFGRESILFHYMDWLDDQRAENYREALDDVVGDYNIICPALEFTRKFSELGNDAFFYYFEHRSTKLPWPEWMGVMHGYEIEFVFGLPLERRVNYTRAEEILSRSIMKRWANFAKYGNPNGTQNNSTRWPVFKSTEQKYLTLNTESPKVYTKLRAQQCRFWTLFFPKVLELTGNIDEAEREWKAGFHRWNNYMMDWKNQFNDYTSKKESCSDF

Beta-secretase 1 [4] = target: T1, Beta-secretase 1; conditions: 50 uM
[5] = target: Acetylcholinesterase (Electrophorus electricus) (UniProt O42275); test: Inhibition of Electrophorus electricus AChE at 10 uM using acetylthiocholine iodide as substrate preincubated for 5 mins followed by substrate addition and measured after 5 mins by Ellman's method relative to control
Sequence of Acetylcholinesterase (Electrophorus electricus) (O42275 24-633 limits assumed): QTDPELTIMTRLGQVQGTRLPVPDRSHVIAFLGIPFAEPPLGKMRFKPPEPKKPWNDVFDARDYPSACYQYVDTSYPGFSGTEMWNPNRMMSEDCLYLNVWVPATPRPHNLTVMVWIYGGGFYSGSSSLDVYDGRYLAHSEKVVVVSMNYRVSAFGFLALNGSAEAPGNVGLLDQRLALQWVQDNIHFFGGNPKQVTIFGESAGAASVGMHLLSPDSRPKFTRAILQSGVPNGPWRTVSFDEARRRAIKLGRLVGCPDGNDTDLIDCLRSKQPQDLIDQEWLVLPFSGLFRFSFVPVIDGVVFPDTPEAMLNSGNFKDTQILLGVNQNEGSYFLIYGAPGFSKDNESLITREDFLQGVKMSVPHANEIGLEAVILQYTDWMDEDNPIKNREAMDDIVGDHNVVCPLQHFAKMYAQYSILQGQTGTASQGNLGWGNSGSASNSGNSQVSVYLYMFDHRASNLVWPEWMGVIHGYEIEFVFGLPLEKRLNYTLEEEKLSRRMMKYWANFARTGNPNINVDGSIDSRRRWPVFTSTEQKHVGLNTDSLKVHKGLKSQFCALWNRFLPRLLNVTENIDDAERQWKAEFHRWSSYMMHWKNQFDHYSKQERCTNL

[6] = target: Cholinesterase (Equus caballus) (UniProt P81908); test: Inhibition of equine serum BuChE at 10 uM using butyrylthiocholine chloride as substrate pre-incubated for 5 mins followed by substrate addition and measured after 5 mins by Ellman's method relative to control
Sequence of Cholinesterase (Equus caballus) (P81908 whole entry): as the sequence (P81908 whole entry) above

[7] = target: Amyloid-beta precursor protein (Homo sapiens) (UniProt P05067); test: Inhibition of HFIP-pretreated amyloid beta (1 to 42) (unknown origin) aggregation at 10 uM after 48 hrs measured every 3 mins by thioflavin T-based fluorometric assay relative to control
Sequence of Amyloid-beta precursor protein (Homo sapiens) (P05067 whole entry): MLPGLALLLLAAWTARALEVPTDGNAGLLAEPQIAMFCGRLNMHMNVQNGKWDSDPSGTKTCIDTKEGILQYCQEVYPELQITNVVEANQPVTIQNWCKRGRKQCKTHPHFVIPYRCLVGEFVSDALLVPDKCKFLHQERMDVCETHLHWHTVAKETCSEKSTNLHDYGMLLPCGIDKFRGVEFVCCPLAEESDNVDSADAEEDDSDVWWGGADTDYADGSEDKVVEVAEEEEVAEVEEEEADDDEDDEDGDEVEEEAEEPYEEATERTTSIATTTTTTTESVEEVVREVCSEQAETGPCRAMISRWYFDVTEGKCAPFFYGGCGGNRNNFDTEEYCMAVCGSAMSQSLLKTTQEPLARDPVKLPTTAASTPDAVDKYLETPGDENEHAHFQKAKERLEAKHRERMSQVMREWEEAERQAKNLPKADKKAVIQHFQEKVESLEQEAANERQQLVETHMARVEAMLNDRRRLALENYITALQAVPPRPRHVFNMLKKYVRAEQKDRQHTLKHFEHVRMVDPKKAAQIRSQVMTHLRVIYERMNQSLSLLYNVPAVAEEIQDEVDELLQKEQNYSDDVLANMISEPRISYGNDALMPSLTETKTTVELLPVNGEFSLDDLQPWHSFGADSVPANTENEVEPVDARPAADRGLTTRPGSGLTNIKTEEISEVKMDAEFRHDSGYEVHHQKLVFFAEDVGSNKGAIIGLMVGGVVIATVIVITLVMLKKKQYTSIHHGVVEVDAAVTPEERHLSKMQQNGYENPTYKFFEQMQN

[8] = target: Microtubule-associated protein tau (Homo sapiens) (UniProt P10636); test: Inhibition of tau aggregation (unknown origin) at 10 uM expressed in Escherichia coli BL21 (DE3) incubated for 24 hrs by thioflavin T-based fluorometric assay relative to control
Sequence of Microtubule-associated protein tau (Homo sapiens) (P10636 whole entry): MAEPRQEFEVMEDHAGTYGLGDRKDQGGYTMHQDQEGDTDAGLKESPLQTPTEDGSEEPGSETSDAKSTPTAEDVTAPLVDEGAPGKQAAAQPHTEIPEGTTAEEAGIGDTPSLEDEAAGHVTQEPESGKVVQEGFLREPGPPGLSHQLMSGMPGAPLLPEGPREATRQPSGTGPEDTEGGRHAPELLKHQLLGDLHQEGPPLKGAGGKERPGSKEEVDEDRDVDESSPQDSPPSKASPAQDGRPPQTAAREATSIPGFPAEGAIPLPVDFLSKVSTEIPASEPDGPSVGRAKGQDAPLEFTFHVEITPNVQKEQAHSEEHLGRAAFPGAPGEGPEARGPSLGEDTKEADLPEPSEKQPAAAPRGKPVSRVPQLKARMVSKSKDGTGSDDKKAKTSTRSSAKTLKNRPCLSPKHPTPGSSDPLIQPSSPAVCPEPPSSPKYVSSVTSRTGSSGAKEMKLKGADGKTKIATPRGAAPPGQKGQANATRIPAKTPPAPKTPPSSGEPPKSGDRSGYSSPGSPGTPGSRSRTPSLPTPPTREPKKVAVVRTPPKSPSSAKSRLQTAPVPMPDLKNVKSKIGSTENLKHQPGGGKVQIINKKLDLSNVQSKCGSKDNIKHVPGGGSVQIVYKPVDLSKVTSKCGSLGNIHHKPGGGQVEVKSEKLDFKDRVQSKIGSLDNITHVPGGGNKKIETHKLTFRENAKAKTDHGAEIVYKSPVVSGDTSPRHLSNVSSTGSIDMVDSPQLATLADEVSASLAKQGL

[9] = Antioxidant activity assessed as ABTS radical scavenging activity at 30 uM measured after 5 mins by spectrophotometric assay relative to control; assay type: functional
[10] = Antioxidant activity assessed as ABTS radical scavenging activity at 75 uM measured after 5 mins by spectrophotometric assay relative to control; assay type: functional
[11] = Antioxidant activity assessed as ABTS radical scavenging activity at 150 uM measured after 5 mins by spectrophotometric assay relative to control; assay type: functional
[12] = Antioxidant activity assessed as ABTS radical scavenging activity at 30 uM measured after 30 mins by spectrophotometric assay relative to control; assay type: functional
[13] = Antioxidant activity assessed as ABTS radical scavenging activity at 75 uM measured after 30 mins by spectrophotometric assay relative to control; assay type: functional
[14] = Antioxidant activity assessed as ABTS radical scavenging activity at 150 uM measured after 30 mins by spectrophotometric assay relative to control; assay type: functional
[15] = Antioxidant activity assessed as ABTS radical scavenging activity at 30 uM measured after 60 mins by spectrophotometric assay relative to control; assay type: functional
[16] = Antioxidant activity assessed as ABTS radical scavenging activity at 75 uM measured after 60 mins by spectrophotometric assay relative to control; assay type: functional
[17] = Antioxidant activity assessed as ABTS radical scavenging activity at 150 uM measured after 60 mins by spectrophotometric assay relative to control; assay type: functional
[18] = Antioxidant activity assessed as increase in total ferric ion reducing activity at 30 uM using FeCl3.H2O and TPTZ incubated for 5 mins by FRAP assay relative to control; assay type: functional; set-up: scale not given: the % may be the effect or the level left
[19] = Antioxidant activity assessed as increase in total ferric ion reducing activity at 75 uM using FeCl3.H2O and TPTZ incubated for 5 mins by FRAP assay relative to control; assay type: functional; set-up: scale not given: the % may be the effect or the level left
[20] = Antioxidant activity assessed as increase in total ferric ion reducing activity at 150 uM using FeCl3.H2O and TPTZ incubated for 5 mins by FRAP assay relative to control; assay type: functional; set-up: scale not given: the % may be the effect or the level left
[21] = Antioxidant activity assessed as increase in total ferric ion reducing activity at 30 uM using FeCl3.H2O and TPTZ incubated for 30 mins by FRAP assay relative to control; assay type: functional; set-up: scale not given: the % may be the effect or the level left
[22] = Antioxidant activity assessed as increase in total ferric ion reducing activity at 75 uM using FeCl3.H2O and TPTZ incubated for 30 mins by FRAP assay relative to control; assay type: functional; set-up: scale not given: the % may be the effect or the level left
[23] = Antioxidant activity assessed as increase in total ferric ion reducing activity at 150 uM using FeCl3.H2O and TPTZ incubated for 30 mins by FRAP assay relative to control; assay type: functional; set-up: scale not given: the % may be the effect or the level left
[24] = Antioxidant activity assessed as increase in total ferric ion reducing activity at 30 uM using FeCl3.H2O and TPTZ incubated for 60 mins by FRAP assay relative to control; assay type: functional; set-up: scale not given: the % may be the effect or the level left
[25] = Antioxidant activity assessed as increase in total ferric ion reducing activity at 75 uM using FeCl3.H2O and TPTZ incubated for 60 mins by FRAP assay relative to control; assay type: functional; set-up: scale not given: the % may be the effect or the level left
[26] = Antioxidant activity assessed as increase in total ferric ion reducing activity at 150 uM using FeCl3.H2O and TPTZ incubated for 60 mins by FRAP assay relative to control; assay type: functional; set-up: scale not given: the % may be the effect or the level left
[27] = target: Amyloid-beta precursor protein (Homo sapiens) (UniProt P05067); conditions: at 10 µM
Description: Inhibition of amyloid beta (1 to 42) (unknown origin) aggregation at 10 uM expressed in Escherichia coli BL21 (DE3) incubated for 24 hrs by thioflavin T-based fluorometric assay relative to control

Cholinesterase [28] = target: T2, Cholinesterase
Description: Inhibition of equine serum BuChE using butyrylthiocholine chloride as substrate pre-incubated for 5 mins followed by substrate addition and measured after 5 mins by Ellman's method

Beta-secretase 1 [29] = target: T1, Beta-secretase 1

Structure (SMILES) | Activity [1] | inhibition (Beta-secretase 1 [4]) | inhibition [5] | inhibition [6] | inhibition [8] | Activity [9] | Activity [10] | Activity [11] | Activity [12] | Activity [13] | Activity [14] | Activity [15] | Activity [16] | Activity [17] | Activity [18] | Activity [19] | Activity [20] | Activity [21] | Activity [22] | inhibition [27] | other results
Cc1c(OCc2ccccc2)cccc1N1CCN(CC(=O)NC2CCN(Cc3ccccc3)C2)CC1 (stereo not drawn) | Active | – | – | – | – | – | – | – | – | – | – | – | – | – | – | – | – | – | – | – | IC50 (Beta-secretase 1 [2]): 33 µM; IC50 (Cholinesterase [3]): 76 µM
c1ccc(CN2CCN(CCNC3CCN(Cc4ccccc4)C3)CC2)cc1 (stereo not drawn) | Active | 13.6% | < 10% | 36.7% | 60.6% | 18% | 26% | 54% | 36% | 50% | 84% | 43% | 58% | 93% | 9% | 17% | 45% | 13% | 27% | 37.9% | inhibition [7]: 19.2%; Activity [23]: 48%; Activity [24]: 15%; Activity [25]: 30%; Activity [26]: 51%
c1ccc(CN2CCC(NCCN3CCN(C(c4ccccc4)c4ccccc4)CC3)C2)cc1 (stereo not drawn) | Active | 34.2% | 27.6% | 46.2% | 64% | 22% | 29% | 51% | 41% | 52% | 77% | 47% | 59% | 84% | 4% | 4% | 19% | 8% | 10% | 31.6% | inhibition [7]: 27.7%; Activity [23]: 21%; Activity [24]: 11%; Activity [25]: 12%; Activity [26]: 25%
c1ccc(CCC2CCCN(CCNC3CCN(Cc4ccccc4)C3)C2)cc1 (stereo not drawn) | Active | 42.6% | 38.5% | – | 57.2% | 12% | 12% | 33% | 18% | 26% | 60% | 25% | 36% | 76% | 4% | 2% | 9% | 6% | 3% | 41.3% | Activity [23]: 9%; Activity [24]: 7%; Activity [25]: 4%; Activity [26]: 11%; IC50 (Cholinesterase [28]): 3.26 µM
c1ccc(CCC2CCN(CCNC3CCN(Cc4ccccc4)C3)CC2)cc1 (stereo not drawn) | Active | 31% | < 10% | – | 67.8% | 8% | 12% | 3% | 12% | 24% | 29% | 18% | 33% | 45% | 2% | 1% | 11% | 2% | 6% | 41% | Activity [23]: 13%; Activity [24]: 3%; Activity [25]: 9%; Activity [26]: 16%; IC50 (Cholinesterase [28]): 7.39 µM
c1ccc(CN2CCC(NCCN3CCC(C(c4ccccc4)c4ccccc4)CC3)C2)cc1 (stereo not drawn) | – | 54.3% | 25.2% | 44.2% | 60.4% | – | – | – | – | – | – | – | – | – | – | – | – | – | – | 31.7% | IC50 (Beta-secretase 1 [29]): 49.8 µM
O=C(CN1CCC(Cc2ccccc2)CC1)NC1CCN(Cc2ccccc2)C1 (stereo not drawn) | – | 55.6% | < 10% | 36.1% | 66.8% | 7% | 8% | 11% | 9% | 12% | 20% | 10% | 14% | 27% | 5% | 2% | 5% | 16% | 5% | 35% | inhibition [7]: 22.1%; Activity [23]: 6%; Activity [24]: 4%; Activity [25]: 6%; Activity [26]: 8%
O=C(CN1CCC(C(c2ccccc2)c2ccccc2)CC1)NC1CCN(Cc2ccccc2)C1 (stereo not drawn) | – | 52.2% | < 10% | 24.6% | 64.3% | – | – | – | – | – | – | – | – | – | – | – | – | – | – | 53.3% | inhibition [7]: 35.3%; IC50 (Beta-secretase 1 [29]): 55.2 µM
